Source: PubChem BioAssay AID493141 (Sanford-Burnham Center for Chemical Genomics, 2011)
“And” between values parts separate entries of the source, which are not always exact repeats. Identical values can stand only once. The source made the active and inactive calls. No rule for the calls is given here.

Each compound was assayed against Alkaline phosphatase, tissue-nonspecific isozyme (Homo sapiens) (UniProt P05186) (assay: human TNAP enzyme inhibitors, SAR follow-up, selectivity assay for human IAP inhibitor project, biochemical (AID 493141)). Conditions: isolated enzyme, CDP-Star luminescence, 30 min.
Alkaline phosphatase, tissue-nonspecific isozyme (Homo sapiens), sequence (P05186 whole entry, looked up): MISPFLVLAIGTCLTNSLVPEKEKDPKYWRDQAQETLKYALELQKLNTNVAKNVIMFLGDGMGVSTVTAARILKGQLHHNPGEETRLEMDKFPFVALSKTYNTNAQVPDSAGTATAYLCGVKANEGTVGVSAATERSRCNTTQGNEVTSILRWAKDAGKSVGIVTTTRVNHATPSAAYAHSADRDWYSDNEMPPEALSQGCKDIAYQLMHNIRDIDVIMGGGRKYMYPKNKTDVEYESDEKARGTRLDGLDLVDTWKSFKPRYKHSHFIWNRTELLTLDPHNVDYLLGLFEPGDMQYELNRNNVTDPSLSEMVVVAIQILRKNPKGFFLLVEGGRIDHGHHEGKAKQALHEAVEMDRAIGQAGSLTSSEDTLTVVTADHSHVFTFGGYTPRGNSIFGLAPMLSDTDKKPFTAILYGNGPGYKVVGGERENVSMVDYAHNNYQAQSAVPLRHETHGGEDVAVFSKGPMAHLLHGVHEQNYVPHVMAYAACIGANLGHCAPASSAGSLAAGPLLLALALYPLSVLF

Row | Structure (SMILES) | IC50
1 | Cc1ccc(Nc2nc(-c3ccc(O)cc3O)cs2)cc1F | > 100 µM (inactive)
2 | COc1ccc(C=NNC(=S)Nc2ccccc2[N+](=O)[O-])cc1O | > 100 µM (inactive)
3 | Cc1cc(=O)oc2cc(NC(=S)NCCC(c3ccccc3)c3ccccc3)ccc12 | > 100 µM (inactive)
4 | O=S(=O)(c1ccc(NC(=S)N/N=C/c2ccc(O)c(O)c2O)cc1)N1CCOCC1 | > 100 µM (inactive)
5 | COC(=O)/C=C1\S/C(=N/N=C/c2ccc(Cl)cc2)NC1=O | > 100 µM (inactive)
6 | CCOc1cc(/C=N/N=C2\NC(=O)C(CC(=O)O)S2)ccc1O (stereo not given) | > 100 µM (inactive)
7 | Cc1ccc(Nc2nc(-c3ccc(O)c(O)c3)cs2)cc1F | 79.4 µM
8 | COC(=O)C/C=N/N=C1\NC(=O)/C(=C/C(=O)O)S1 | > 100 µM (inactive)
9 | Cc1ccc(Nc2nc(-c3ccc(O)c(C(N)=O)c3)cs2)cc1 | > 100 µM (inactive)
10 | O=[N+]([O-])c1ccccc1NC(=S)NN=Cc1ccc(O)c(O)c1 | 42.8 µM
11 | COc1cc(/C=N/N=C2\NC(=O)C(CC(=O)O)S2)cc(OC)c1OC (stereo not given) | > 100 µM (inactive)
12 | COc1cc(C=NN=C2SC(CC(=O)O)C(=O)N2c2ccc(O)cc2)ccc1O (stereo not given) | > 100 µM (inactive)
13 | COC(=O)/C=C1\SC(N=Nc2c(O)[nH]c3ccccc23)=NC1=O | > 100 µM (inactive)
14 | FC(F)(F)c1cccc(NC(=S)NCCC(c2ccccc2)c2ccccc2)c1 | > 100 µM (inactive)
15 | COc1ccc(C=NN=C2SC(CC(=O)O)C(=O)N2c2ccc(O)cc2)cc1 (stereo not given) | > 100 µM (inactive)
16 | Cc1ccc2nc(NNC(=O)c3ccc4c(c3)OCCO4)sc2c1 | > 100 µM (inactive)
17 | COc1ccc(Cl)cc1Nc1nc(-c2ccc(O)c(O)c2)cs1 | > 100 µM (inactive) and 83.7 µM
18 | COc1ccc(NC(=S)NCCC(c2ccccc2)c2ccccc2)cc1 | > 100 µM (inactive)
19 | Cc1ccc(C)c(Nc2nc(-c3ccc(O)cc3O)cs2)c1 | > 100 µM (inactive)
20 | Cc1ccc(Cl)cc1Nc1nc(-c2ccc(O)c(O)c2)cs1 | 51.4 µM
21 | O=S(=O)(c1ccc(NC(=S)N/N=C/c2ccc(O)c(O)c2)cc1)N1CCOCC1 | 14.1 µM
22 | COc1cc(C=NNC(=S)Nc2cccc(S(=O)(=O)N(C)C)c2)ccc1O | > 100 µM (inactive)
23 | Cc1ccc(-c2ccc(/C=N/N=C3\NC(=O)C(CC(=O)O)S3)o2)c([N+](=O)[O-])c1 (stereo not given) | > 100 µM (inactive)
24 | Oc1ccc(-c2csc(Nc3ccccc3)n2)c(O)c1 | > 100 µM (inactive)
25 | COc1cc([N+](=O)[O-])ccc1NC(=S)NCCC(c1ccccc1)c1ccccc1 | > 100 µM (inactive)

Row | Structure (SMILES) | IC50
26 | Cc1cccc(Nc2nc(-c3ccc(O)c(C(N)=O)c3)cs2)c1 | > 100 µM (inactive)
27 | Oc1ccc(-c2csc(Nc3cccc4ccccc34)n2)cc1O | 22.5 µM and 27.9 µM
28 | CC(C)(C)c1ccc(/C=N/N=C2\NC(=O)C(CC(=O)O)S2)cc1 (stereo not given) | > 100 µM (inactive)
29 | O=[N+]([O-])c1ccc(NC(=S)NCCC(c2ccccc2)c2ccccc2)cc1 | > 100 µM (inactive)
30 | COc1ccc(/C=N/N=C2\NC(=O)C(CC(=O)O)S2)c(OC)c1 (stereo not given) | > 100 µM (inactive)
31 | Cc1ccc(Nc2nc(-c3ccc(O)c(O)c3)cs2)cc1 | > 100 µM (inactive)
32 | CCc1ccccc1Nc1nc(-c2ccc(O)c(O)c2)cs1 | 30.5 µM and 21.4 µM
33 | COc1ccc(C=Nn2c(=S)n(C)c3ccccc32)cc1OC | > 100 µM (inactive)
34 | CN(C)S(=O)(=O)c1cccc(NC(=S)NN=Cc2ccc(O)c(O)c2O)c1 | > 100 µM (inactive)
35 | COc1cc(C(=O)NNC(=S)Nc2ccc(S(N)(=O)=O)cc2)cc(OC)c1OC | > 100 µM (inactive)
36 | Cc1ccc(Nc2nc(-c3ccc(O)cc3O)cs2)cc1 | > 100 µM (inactive)
37 | Cc1ccc2sc(NNC(=O)c3ccc4c(c3)OCCO4)nc2c1C | > 100 µM (inactive)
38 | O=S(=O)(Nc1ncccn1)c1ccc(NC(=S)NCCC(c2ccccc2)c2ccccc2)cc1 | > 100 µM (inactive)
39 | COC(=O)/C=C1/S/C(=N/NC(=O)c2ccccc2C)NC1=O | > 100 µM (inactive)
40 | CCOc1cc(C=N/N=C2/NC(=O)C(CC(=O)O)S2)ccc1OCc1ccccc1Cl (stereo not given) | > 100 µM (inactive)
41 | CCN(CC)S(=O)(=O)c1ccc(-c2csc(=Nc3cccc4ccccc34)n2C)cc1 | > 100 µM (inactive)
42 | Cc1cccc(C)c1NC(=S)N/N=C/c1ccc(O)c(O)c1O | > 100 µM (inactive)
43 | Cc1cc(C)cc(Nc2nc(-c3ccc(O)cc3O)cs2)c1 | > 100 µM (inactive)
44 | Cn1c(=S)n(N=Cc2ccc3c(c2)OCO3)c2ccccc21 | > 100 µM (inactive)
45 | O=C(O)CC1S/C(=N/N=C/c2ccco2)NC1=O (stereo not given) | > 100 µM (inactive)
46 | Cc1cccc2sc(NNC(=O)c3ccc4c(c3)OCCO4)nc12 | > 100 µM (inactive)
47 | Cc1cccc(Nc2nc(-c3ccc(O)c(O)c3)cs2)c1 | 60.6 µM
48 | COc1cc([N+](=O)[O-])ccc1NC(=S)NNC(=O)c1ccc2c(c1)OCO2 | > 100 µM (inactive)
49 | S=C(NCCC(c1ccccc1)c1ccccc1)Nc1ccc(Cl)cc1Cl | > 100 µM (inactive)
50 | COc1ccc(/C=N/N=C2/NC(=O)C(CC(=O)O)S2)cc1OC (stereo not given) | > 100 µM (inactive)

Row | Structure (SMILES) | IC50
51 | COc1cc(C=NNC(=S)Nc2cccc(C(=O)O)c2)ccc1O | > 100 µM (inactive)
52 | COC(=O)/C=C1/S/C(=N/NC(=O)c2ccc(OC)cc2)NC1=O | > 100 µM (inactive)
53 | COc1ccc(-c2csc(Nc3cccc4ccccc34)n2)cc1 | > 100 µM (inactive)
54 | CCOc1ccc(Nc2nc(-c3ccc(O)c(O)c3)cs2)cc1 | > 100 µM (inactive)
55 | Cc1cccc(NC(=S)NN=Cc2ccc3c(c2)OCO3)c1 | > 100 µM (inactive)
56 | COC(=O)/C=C1/S/C(=N/NC(=O)c2ccccc2)NC1=O | > 100 µM (inactive)
57 | COC(=O)/C=C1/S/C(=N/NC(=O)c2ccc(Cl)cc2Cl)NC1=O | > 100 µM (inactive)
58 | COc1ccc(-c2csc(Nc3cccc4ccccc34)n2)cc1F | > 100 µM (inactive)
59 | COC(=O)/C=C1/S/C(=N/N=Cc2ccc(N(C)C)cc2)NC1=O | > 100 µM (inactive)
60 | N#CCCn1cc(/C=N/N=C2/NC(=O)C(CC(=O)O)S2)c(-c2ccc(F)cc2)n1 (stereo not given) | > 100 µM (inactive)
61 | COC(=O)/C=C1\S/C(=N/N=C/CC(=O)OC)NC1=O | > 100 µM (inactive)
62 | NS(=O)(=O)c1ccc(Nc2nc(-c3ccc(O)cc3O)cs2)cc1 | 59.9 µM
63 | Oc1ccc(Nc2nc(-c3ccc(O)c(O)c3)cs2)cc1 | 17.8 µM
64 | O=[N+]([O-])c1ccccc1NC(=S)N/N=C/c1ccc(O)c(O)c1O | 86.1 µM
65 | NS(=O)(=O)c1ccc(Nc2nc(-c3ccc(O)c(O)c3)cs2)cc1 | 6.26 µM
66 | Cc1c(Cl)cccc1Nc1nc(-c2ccc(O)c(O)c2)cs1 | 41 µM and > 100 µM (inactive)
67 | CC(=NNC(=S)Nc1ccccc1)c1ccc2c(c1)OCO2 | > 100 µM (inactive)
68 | COc1cc(/C=N/N=C2/SCC(=O)N2c2ccc(O)cc2)ccc1O | > 100 µM (inactive)
69 | COc1cc(C=NNC(=S)Nc2cccc(S(=O)(=O)N(C)C)c2)cc(OC)c1O | > 100 µM (inactive)
70 | Oc1ccc(-c2csc(Nc3ccc(F)cc3)n2)cc1O | 54.8 µM
71 | COc1cccc(Nc2nc(-c3ccc(O)cc3)cs2)c1 | > 100 µM (inactive)
72 | Cc1ccc(Nc2nc(-c3ccc(O)cc3O)cs2)cc1C | > 100 µM (inactive)
73 | CCOc1cc(C=NNC(=S)NC2CCCCC2)ccc1O | > 100 µM (inactive)
74 | Cc1cccc(NC(=S)NNC(=O)c2ccc3c(c2)OCO3)c1 | > 100 µM (inactive)
75 | COC(=O)/C=C1/S/C(=N/NC(=O)c2ccccc2OC)NC1=O | > 100 µM (inactive)
